# Results: patent US8530465B2, “1, 2-disubstituted amido-anthraquinone derivatives, preparation method and application thereof” (National Defense Medical Center, priority 2010, dated 2013)
# Experiments:
# Type in all cases: cell-based, human
# [1] = system: UACC-62; experiment: NCI drug screen, UACC-62; details: UACC-62 (Melanoma); 1.00E−5 Molar
# Protocol: (§1) In brief, cellular protein levels were determined after 48 hours of drug exposure by sulforhodamine B colorimetry. Through the use of a time 0 cell control, the cell growth can be determined for each cell line thus allowing calculations of the 50% growth inhibitory concentration (GI50), the total growth inhibition (TGI), and the 50% lethal concentration (LC50). Comparison to plates not exposed to drug permits determination of concentration and times of exposure conferring 50% net growth inhibition (GI50), TGI, and 50% cell kill (LC50).
# (§2) The screening system in United State National Cancer Institute (NCI) is consisted of 60 kinds of different human cancer cells, which can be used to assay the growth-inhibiting ability or cell toxicity of a compound against various cancer and tumor at a certain concentration.
# [2] = system: OVCAR-8; experiment: NCI drug screen, OVCAR-8; details: OVCAR-8 (Ovarian Cancer); 1.00E−5 Molar
# Protocol: as §1, §2
# [3] = system: SNB-75; experiment: NCI drug screen, SNB-75; details: SNB-75 (CNS Cancer); 1.00E−5 Molar
# Protocol: as §1, §2
# [4] = system: RPMI-8226; experiment: NCI drug screen, RPMI-8226; details: RPMI-8226 (Leukemia); 1.00E−5 Molar
# Protocol: as §1, §2
# [5] = system: SF-539; experiment: NCI drug screen, SF-539; details: SF-539 (CNS Cancer); 1.00E−5 Molar
# Protocol: as §1, §2
# [6] = system: HCT-15; experiment: NCI drug screen, HCT-15; details: HCT-15 (Colon Cancer); 1.00E−5 Molar
# Protocol: as §1, §2
# [7] = system: NCI-H460; experiment: NCI drug screen, NCI-H460; details: NCI-H460 (Non-Small Cell Lung Cancer); 1.00E−5 Molar
# Protocol: as §1, §2
# [8] = system: MDA-MB-435; experiment: NCI drug screen, MDA-MB-435; details: MDA-MB-435 (Melanoma); 1.00E−5 Molar
# Protocol: as §1, §2
# [9] = system: H1299; experiment: MTT assay, PhTERT-SEAP (H1299); details: H1299; SEAP and MTT analysis
# Procedure, shortened: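 Cultured cells received MTT for 4 h at 37 °C, then lysis buffer overnight at 37 °C. Optical density was read at 550 nm.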
SMILES,Growth Percent [1] [%],Growth Percent [2] [%],Growth Percent [3] [%],Growth Percent [4] [%],Growth Percent [5] [%],Growth Percent [6] [%],Growth Percent [7] [%],Growth Percent [8] [%],inhibitory activity among compounds CC-35 to CC-50 [9]
"Cc1ccc(C(=O)Nc2ccc3c(c2NC(=O)c2ccc(C)cc2)C(=O)c2ccccc2C3=O)cc1 [CC-04, 1,2-bis-(4-methylbenzamido)-anthraquinone]",87.50,85.43,102.26,101.77,97.26,102.44,88.62,–,–
"Cc1ccc(C(=O)Nc2c(NC(=O)CCl)ccc3c2C(=O)c2ccccc2C3=O)cc1 [CC-12, 1-(4-methylbenzamido)-2-(chloroacetamido)-anthraquinone]",−67.80,8.72,6.31,–,−31.42,−50.22,95.65,4.82,–
"O=C(CCl)Nc1ccc2c(c1NC(=O)Cc1ccccc1)C(=O)c1ccccc1C2=O [CC-23, 1-[2-(phenyl)acetylamino]-2-(chloroacetamido)-anthraquinone]",59.67,–,109.14,–,107.09,68.55,104.50,80.40,–
"Cc1ccc(C(=O)Nc2c(NC(=O)CN3CCCC3)ccc3c2C(=O)c2ccccc2C3=O)cc1 [CC-38, 1-(4-methylbenzamido)-2-[2-(tetrahydro-1H-1-pyrrolyl)acetylamino]-anthra quinone]",76.82,65.02,66.03,–,81.29,73.22,61.05,79.14,–
"Cc1ccc(C(=O)Nc2c(NC(=O)CN3CCN(C)CC3)ccc3c2C(=O)c2ccccc2C3=O)cc1 [CC-43, 1-(4-methylbenzamido)-2-[2-(4-methylpiperazino)acetylamino]-anthraquinone]",−20.65,46.43,82.17,–,62.68,27.47,37.47,11.15,higher inhibitory activity
